In patent publication US9850283B2, “Macrocyclic inhibitors of the PD-1/PD-L1 and CD80(B7-1)/PD-L1 protein/protein interactions” (BRISTOL-MYERS SQUIBB COMPANY, priority 2013, dated 2017):
Like-named read-outs stand apart in the source and are kept apart here. Starred links: 1 amine or outer side, 2 acyl side, 3 side chain; linkers in the order of their positions; H or OH if unused. Positions of bridges follow the written chain, without caps; N, C: chain ends. Non-standard residues stand in square brackets, D forms with d. Residues, ends and D or L forms follow the SMILES beside them. ξ: configuration not given here. *: point of attachment. Phe(3,4,5-F3) = N[C@@H](Cc1cc(F)c(F)c(F)c1)C(=O)O; Phe(4-CH2NH2) = NCc1ccc(C[C@H](N)C(=O)O)cc1; X1 = C[C@@H]1C[C@H](C(=O)[*:2])N([*:1])C1; Bta = N[C@@H](Cc1csc2ccccc12)C(=O)O; NMeIle(3ξ) = CCC(C)[C@H](NC)C(=O)O; cisHyp = O=C(O)[C@@H]1C[C@H](O)CN1; Hyp = O=C(O)[C@@H]1C[C@@H](O)CN1; NMeF = CN[C@@H](Cc1ccccc1)C(=O)O; X4 = O=C([C@H]1COCCN1[*:1])[*:2]; dHyp = O=C(O)[C@H]1C[C@H](O)CN1; NMeNle = CCCC[C@H](NC)C(=O)O; NMeA = CN[C@@H](C)C(=O)O; Orn = NCCC[C@H](N)C(=O)O; Dab = NCC[C@H](N)C(=O)O; Dap = NC[C@H](N)C(=O)O; Alloc = C=CCOC(=O)*; ξC = NC(CS)C(=O)O; Sar = CNCC(=O)O

What was measured:
[1] = target: T1, LK35.2-hPD-L1 cells / PE-labeled PD-1-Ig (Homo sapiens, UniProt Q9NZQ7); assay: LK35.2-hPD-L1 cell binding high-content screening assay; type: cell-based; settings: cluster symbol, read-out: CBA IC50 cluster
T1 construct: expressed in transfected cells; host or cells: LK35.2 mouse B cell line
T1 sequence (Q9NZQ7 19-290): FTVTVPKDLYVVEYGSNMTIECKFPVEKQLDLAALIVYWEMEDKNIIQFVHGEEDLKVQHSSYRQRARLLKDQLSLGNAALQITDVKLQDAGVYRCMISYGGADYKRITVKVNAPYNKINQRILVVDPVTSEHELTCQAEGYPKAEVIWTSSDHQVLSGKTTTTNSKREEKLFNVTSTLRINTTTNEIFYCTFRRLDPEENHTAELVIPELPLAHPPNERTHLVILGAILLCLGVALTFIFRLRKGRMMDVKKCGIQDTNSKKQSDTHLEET
Procedure, shortened: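 Compound effect on PD-1/PD-L1 binding is measured by imaging cell-associated phycoerythrin signal. Human PD-1-Ig (PE on Ig tag, 1 nM final) is applied with compound to a murine B cell line overexpressing human PD-L1 for 1 h at 37 °C in serum-containing RPMI.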

[2] = target: T2, Human PD-L1/PD-1 (Homo sapiens, UniProt Q9NZQ7); assay: HTRF PD-1-Ig/PD-L1-His binding assay (human PD-L1); settings: cluster symbol; read-out: HTRF IC50 cluster
T2 construct: made in house; host or cells: HEK293T
T2 sequence (Q9NZQ7 with tags, fused parts or gaps): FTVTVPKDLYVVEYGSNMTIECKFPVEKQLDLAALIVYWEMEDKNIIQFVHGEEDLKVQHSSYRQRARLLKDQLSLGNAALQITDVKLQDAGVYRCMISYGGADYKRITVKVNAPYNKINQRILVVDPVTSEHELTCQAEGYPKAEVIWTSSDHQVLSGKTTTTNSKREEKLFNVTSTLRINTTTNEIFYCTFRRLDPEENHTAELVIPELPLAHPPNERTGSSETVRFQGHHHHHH
Procedure, shortened: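 The time-resolved fluorescence signal comes from Eu-cryptate anti-Ig (1 nM) and APC anti-His (20 nM) antibodies bound to a PD-1-Ig/PD-L1-His complex. Both partners lack transmembrane regions.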

[3] = cell binding assay, cell line not given
[4] = cell line of CBA not given (LK35.2-hPD-L1 or 293T-hPD-L1)

IC50 [1, 3] | IC50 [2] | IC50 [1, 4] | SMILES
4.78 to 72.9 nM | 6.76 to 30.3 nM | – | CCCC[C@H]1C(=O)N[C@@H](CN)C(=O)N[C@H](C(=O)NCC(N)=O)CSCC(=O)N[C@@H](Cc2ccc(O)cc2)C(=O)N(C)[C@@H](C)C(=O)N[C@@H](CC(N)=O)C(=O)N2CCC[C@H]2C(=O)N[C@@H](Cc2c[nH]cn2)C(=O)N[C@@H](CCC(=O)O)C(=O)N2C[C@H](O)C[C@H]2C(=O)N[C@@H](Cc2c[nH]c3ccccc23)C(=O)N[C@@H](CCN)C(=O)N[C@@H](Cc2c[nH]c3ccccc23)C(=O)N(C)[C@@H](C(C)CC)C(=O)N1C (stereo partly shown) [Example 5146] ({CH2CO}-Y[NMeA]NPHE[Hyp]W[Dab]W[NMeIle(3ξ)][NMeNle][Dap]CG-NH2; thioether N-14)
– | 0.385 to 6.74 nM | 0.158 to 4.71 nM | CCCC[C@H]1C(=O)N(C)[C@@H](CCCC)C(=O)N[C@@H](CCCNC(=N)N)C(=O)N[C@H](C(=O)NCC(N)=O)CSCC(=O)N[C@@H](Cc2ccc(O)cc2)C(=O)N(C)[C@@H](C)C(=O)N[C@@H](CC(N)=O)C(=O)N2CCC[C@H]2C(=O)N[C@@H](CN)C(=O)N[C@@H](CC(C)C)C(=O)N2CCC[C@H]2C(=O)N[C@@H](Cc2c[nH]c3ccccc23)C(=O)N[C@@H](CO)C(=O)N[C@@H](Cc2csc3ccccc23)C(=O)N1C [Example 1084] ({CH2CO}-Y[NMeA]NP[Dap]LPWS[Bta][NMeNle][NMeNle]RCG-NH2; thioether N-14)
0.158 to 4.71 nM | 0.385 to 6.74 nM | – | CCCC[C@H]1C(=O)N2C[C@@H](O)C[C@@H]2C(=O)N[C@@H](CC(N)=O)C(=O)N[C@@H](C(C)C)C(=O)N(C)[C@@H](Cc2ccccc2)C(=O)N[C@@H](Cc2ccc(O)cc2)C(=O)N2CCOC[C@@H]2C(=O)N[C@@H](Cc2c[nH]c3ccccc23)C(=O)N[C@@H](Cc2ccc(O)cc2)C(=O)N[C@@H](CCCN)C(=O)N[C@H](C(=O)NCC(N)=O)CSCC(=O)N[C@@H](Cc2cc(F)c(F)c(F)c2)C(=O)N(C)[C@@H](Cc2ccccc2)C(=O)N1C [Example 3606] ({CH2CO}-[Phe(3,4,5-F3)][NMeF][NMeNle][dHyp]NV[NMeF]Y[X4]WY[Orn]CG-NH2; thioether N-13)
0.158 to 4.71 nM | 0.385 to 6.74 nM | – | CCCC[C@H]1C(=O)N(C)[C@@H](CCCC)C(=O)N[C@@H](CN)C(=O)N[C@H](C(=O)NCC(N)=O)CSCC(=O)N[C@@H](Cc2ccc(O)cc2)C(=O)N(C)[C@@H](C)C(=O)N[C@@H](CC(N)=O)C(=O)N2CCC[C@H]2C(=O)N[C@@H](CN)C(=O)N[C@@H](CCC(=O)O)C(=O)N2C[C@H](O)C[C@H]2C(=O)N[C@@H](Cc2c[nH]c3ccccc23)C(=O)N[C@@H](CO)C(=O)N[C@@H](Cc2c[nH]c3ccccc23)C(=O)N1C [Example 5061] ({CH2CO}-Y[NMeA]NP[Dap]E[Hyp]WSW[NMeNle][NMeNle][Dap]CG-NH2; thioether N-14)
0.158 to 4.71 nM | 0.385 to 6.74 nM | – | CCCC[C@H]1C(=O)N(C)CC(=O)N[C@@H](CC(=O)O)C(=O)N[C@@H](C(C)C)C(=O)N(C)[C@@H](Cc2ccccc2)C(=O)N[C@@H](Cc2ccc(O)cc2)C(=O)N2C[C@H](C)C[C@@H]2C(=O)N[C@@H](Cc2c[nH]c3ccccc23)C(=O)N[C@@H](Cc2ccc(O)cc2)C(=O)N[C@@H](CC(C)C)C(=O)N[C@H](C(=O)NCC(N)=O)CSCC(=O)N[C@@H](Cc2ccccc2)C(=O)N(C)[C@@H](Cc2ccccc2)C(=O)N1C [Example 3578] ({CH2CO}-F[NMeF][NMeNle][Sar]DV[NMeF]Y[X1]WYLCG-NH2; thioether N-13)
0.158 to 4.71 nM | 6.76 to 30.3 nM | – | CCCC[C@H]1C(=O)N(C)[C@@H](CCCC)C(=O)N[C@@H](CCCNC(=N)N)C(=O)NC(C(=O)NCC(N)=O)CSCC(=O)N[C@@H](Cc2ccc(O)cc2)C(=O)N(C)[C@@H](C)C(=O)N[C@@H](CC(N)=O)C(=O)N2C[C@H](O)C[C@H]2C(=O)N[C@@H](Cc2cnc[nH]2)C(=O)N[C@@H](CC(C)C)C(=O)N2C[C@H](O)C[C@H]2C(=O)N[C@@H](Cc2c[nH]c3ccccc23)C(=O)N[C@@H](CO)C(=O)N[C@@H](Cc2csc3ccccc23)C(=O)N1C (stereo partly shown) [Example 9012] ({CH2CO}-Y[NMeA]N[Hyp]HL[Hyp]WS[Bta][NMeNle][NMeNle]R[ξC]G-NH2; thioether N-14)
– | 6.76 to 30.3 nM | 4.78 to 72.9 nM | CCCC[C@H]1C(=O)N(C)[C@@H](CCCC)C(=O)N[C@@H](C)C(=O)N[C@H](C(=O)NCC(N)=O)CSCC(=O)N[C@@H](Cc2ccc(O)cc2)C(=O)N(C)[C@@H](C)C(=O)N[C@@H](CCC(=O)O)C(=O)N2CCC[C@H]2C(=O)N[C@@H](Cc2cnc[nH]2)C(=O)N[C@@H](CC(C)C)C(=O)N2C[C@H](O)C[C@H]2C(=O)N[C@@H](Cc2c[nH]c3ccccc23)C(=O)N[C@@H](CO)C(=O)N[C@@H](Cc2c[nH]c3ccccc23)C(=O)N1C [Example 1169]
4.78 to 72.9 nM | 0.385 to 6.74 nM | – | CCCC[C@H]1C(=O)N(C)[C@@H](CCCC)C(=O)N[C@@H](CCC(=O)O)C(=O)N[C@H](C(=O)NCC(N)=O)CSCC(=O)N[C@@H](Cc2ccc(O)cc2)C(=O)N(C)[C@@H](C)C(=O)N[C@@H](CC(=O)O)C(=O)N2CCC[C@H]2C(=O)N[C@@H](Cc2c[nH]cn2)C(=O)N[C@@H](CCCCN)C(=O)N2C[C@H](O)C[C@H]2C(=O)N[C@@H](Cc2c[nH]c3ccccc23)C(=O)N[C@@H](CO)C(=O)N[C@@H](Cc2c[nH]c3ccccc23)C(=O)N1C [Example 5098] ({CH2CO}-Y[NMeA]DPHK[Hyp]WSW[NMeNle][NMeNle]ECG-NH2; thioether N-14)
– | 6.76 to 30.3 nM | > 74.3 nM | CCCC[C@H]1C(=O)N(C)[C@@H](CCCC)C(=O)N[C@@H](CCCNC(=N)N)C(=O)N[C@H](C(=O)NCC(N)=O)CSCC(=O)N[C@@H](Cc2ccc(O)cc2)C(=O)N(C)[C@@H](C)C(=O)N[C@@H](CCCN)C(=O)N2CCC[C@H]2C(=O)N[C@@H](C)C(=O)N[C@@H](CC(C)C)C(=O)N2C[C@@H](O)C[C@H]2C(=O)N[C@@H](Cc2c[nH]c3ccccc23)C(=O)N[C@@H](CO)C(=O)N[C@@H](Cc2c[nH]c3ccccc23)C(=O)N1C [Example 1146] ({CH2CO}-Y[NMeA][Orn]PAL[cisHyp]WSW[NMeNle][NMeNle]RCG-NH2; thioether N-14)
4.78 to 72.9 nM | 6.76 to 30.3 nM | – | CCCC[C@H]1C(=O)N(C)CC(=O)N[C@@H](CC(=O)O)C(=O)N[C@@H](C(C)C)C(=O)N(C)[C@@H](Cc2ccccc2)C(=O)N[C@@H](Cc2ccc(O)cc2)C(=O)N(C)CC(=O)N[C@@H](Cc2c[nH]c3ccccc23)C(=O)N[C@@H](Cc2ccc(CN)cc2)C(=O)N[C@@H](CC(C)C)C(=O)N[C@H](C(=O)NCC(N)=O)CSCC(=O)N[C@@H](Cc2ccccc2)C(=O)N(C)[C@@H](Cc2ccccc2)C(=O)N1C [Example 3514] ({CH2CO}-F[NMeF][NMeNle][Sar]DV[NMeF]Y[Sar]W[Phe(4-CH2NH2)]LCG-NH2; thioether N-13)
– | 6.76 to 30.3 nM | 4.78 to 72.9 nM | CCCC[C@H]1C(=O)N(C)[C@@H](CCCC)C(=O)N[C@@H](C)C(=O)N[C@H](C(=O)NCC(=O)O)CSCC(=O)N[C@@H](Cc2ccc(O)cc2)C(=O)N(C)[C@@H](C)C(=O)N[C@@H](CC(N)=O)C(=O)N2CCC[C@H]2C(=O)N[C@@H](Cc2cnc[nH]2)C(=O)N[C@@H](CC(C)C)C(=O)N[C@@H](CCCCN)C(=O)N[C@@H](Cc2c[nH]c3ccccc23)C(=O)N[C@@H](CO)C(=O)N[C@@H](Cc2c[nH]c3ccccc23)C(=O)N1C [Example 1238]
0.158 to 4.71 nM | 0.385 to 6.74 nM | – | CCCC[C@H]1C(=O)N(C)[C@@H](CCCC)C(=O)N[C@@H](CCCNC(=N)N)C(=O)N[C@H](C(=O)NCC(N)=O)CSCC(=O)N[C@@H](Cc2ccc(O)cc2)C(=O)N(C)[C@@H](C)C(=O)N[C@@H](CCCN)C(=O)N2CCC[C@H]2C(=O)N[C@@H](Cc2c[nH]cn2)C(=O)N[C@@H](CCC(=O)O)C(=O)N2C[C@H](O)C[C@H]2C(=O)N[C@@H](Cc2c[nH]c3ccccc23)C(=O)N[C@@H](CO)C(=O)N[C@@H](Cc2c[nH]c3ccccc23)C(=O)N1C [Example 5113] ({CH2CO}-Y[NMeA][Orn]PHE[Hyp]WSW[NMeNle][NMeNle]RCG-NH2; thioether N-14)
4.78 to 72.9 nM | 0.385 to 6.74 nM | – | CCCC[C@H]1C(=O)N(C)[C@@H](COc2cccc(C)c2)C(=O)N[C@@H](CCN)C(=O)N[C@H](C(=O)NCC(N)=O)CSCC(=O)N[C@@H](Cc2ccc(O)cc2)C(=O)N(C)[C@@H](C)C(=O)N[C@@H](CC(=O)O)C(=O)N2CCC[C@H]2C(=O)N[C@@H](CN)C(=O)N[C@@H](CCC(=O)O)C(=O)N2C[C@H](O)C[C@H]2C(=O)N[C@@H](Cc2c[nH]c3ccccc23)C(=O)N[C@@H](CO)C(=O)N[C@@H](Cc2c[nH]c3ccccc23)C(=O)N1C [Example 6031]
– | > 30.5 nM | > 74.3 nM | C=CCOC(=O)NCCC[C@@H]1NC(=O)[C@H](CCCC)N(C)C(=O)[C@H](CCCC)N(C)C(=O)[C@H](Cc2csc3ccccc23)NC(=O)[C@H](CCNC(=O)OCC=C)NC(=O)[C@H](Cc2c[nH]c3ccccc23)NC(=O)[C@@H]2C[C@@H](O)CN2C(=O)[C@H](CCC(=O)O)NC(=O)[C@H](Cc2cnc[nH]2)NC(=O)[C@@H]2CCCN2C(=O)[C@H](CCCN)NC(=O)[C@H](C)N(C)C(=O)[C@H](Cc2ccc(O)cc2)NC(=O)CSC[C@@H](C(=O)NCC(N)=O)NC1=O [Example 1230] ({CH2CO}-Y[NMeA][Orn]PHE[Hyp]W[Dab](Alloc)[Bta][NMeNle][NMeNle][Orn](Alloc)CG-NH2; thioether N-14)
